Counter-ions that a name gives are not always drawn.

In general, inhibition refers to the drop in the measured response relative to a control, in per cent. Higher therefore signals a strong effect.

In one series the test system is LTD4. The experiment in a line: LTD4 antagonism in isolated guinea-pig trachea (method (i)). The series is classed as cell-based. The settings on record: 10^-5 g/ml test compound, 5 min prior to LTD4 (2×10^-8 g/ml), hydrochloride. The protocol: (i) LTC4 and LTD4 antagonisms in guinea-pig trachea
Antagonisms for LTC4 and LTD4 were determined in isolated guinea-pig trachea prepared as spiral strip. Tracheal preparations were suspended under 1 g tension in 10 ml organ baths and they were incubated for 1 hr prior to use. Contractile responses to LTC4 (2×10^-8 g/ml) and LTD4 (2×10^-8 g/ml) were obtained after the maximal response to histamine (10^-4 M). Test compounds dissolved in 100% dimethyl sulfoxide were added to the organ baths (final concentration of 10^-5 g/ml or 10^-6 g/ml) 5 min prior to LTC4 and LTD4 addition, and then contractile responses to LTC4 and LTD4 were compared with those of control which was obtained from a paired trachea in the absence of test compounds. LTC4 - and LTD4 -induced contractions were expressed as a percentage of the maximal response to histamine. The antagonism was determined as follows:
(§1) Antagonism (%)=(1.0-% contraction in test/% contraction in control)×100
With `COc1ccc(CNc2cnn(CCN(C)C)c(=O)c2Cl)cc1OC` [Compound No. 9, 4-Chloro-5-(3,4-dimethoxybenzylamino)-2-(2-N,N-dimethylaminoethyl)-3(2H)pyridazinone hydrochloride], the “LTD4 antagonism (%)” value was 26%.

The series is the same for the next values; noted with them: Cavia porcellus, 5 min, 10^-5 g/ml test compound, 5 min prior to LTD4 (2×10^-8 g/ml).
Molecule `CCCCCOc1cc(CNc2cnn(CCCO)c(=O)c2Cl)ccc1OC` [compound 15] registered an inhibition at 10 µg/mL of 51%.

In the case of `CN(C)c1ccc(CNc2cn[nH]c(=O)c2Cl)cc1` [compound 25], the inhibition at 10 µg/mL is 63%. Same read-out and setting: next, `CCCCC/C=C\c1ccc(CNc2cnn(CC(=O)O)c(=O)c2Cl)cc1` [compound 23]: 31%; `COc1ccc(CNc2cnn(CCN(C)C)c(=O)c2Cl)cc1O` [compound 21]: 20%.

Molecule `COc1cc(CNc2cnn(C)c(=O)c2Cl)cc(OC)c1OC` [compound 19] yielded an inhibition at 10 µg/mL of 22%.

For `CCCCCOc1cc(CNc2cnn(CC(=O)O)c(=O)c2Cl)ccc1OC` [compound 17], the inhibition at 10 µg/mL came to 20%.

With `CCOc1cccc(CNc2cnn(C)c(=O)c2Cl)c1` [Compound No. 4], the inhibition at 10 µg/mL came to 49%. Same read-out and setting: in the case of `C=CCn1ncc(NCc2ccc(SC)cc2)c(Cl)c1=O` [compound 22] it was 72%. In the case of `COc1ccc(CNc2cnn(CC(F)(F)F)c(=O)c2Cl)cc1OC` [compound 11], the inhibition at 10 µg/mL was 47%. Consider `CCCOc1cc(CNc2cnn(C)c(=O)c2Cl)ccc1OC` [Compound No. 12], for which at 10 µg/mL the inhibition was 73%.

As for `COc1ccc(CNc2cnn(CCN(C)C)c(=O)c2Cl)cc1OC` [Compound No. 8, 4-Chloro-5-(3,4-dimethoxybenzylamino)-2-(2-N,N-dimethylaminoethyl)-3(2H)pyridazinone], the inhibition at 10 µg/mL came to 36%. The same measure, in the same setting: next, `CC(C)c1ccc(CNc2cnn(C)c(=O)c2Cl)cc1` [Compound No. 1]: 49%; `CCCCCOc1cc(CNc2cnn(CCC(=O)OC(C)(C)C)c(=O)c2Cl)ccc1OC` [Compound No. 16, 4-Chloro-5-(3-n-pentyloxy-4-methoxybenzylamino)-2-{2-(t-butyloxycarbonyl)ethyl}-3(2H)pyridazinone]: 24%.

`CCCOc1cccc(CNc2cn[nH]c(=O)c2Cl)c1` [compound 31]: testing at 10 µg/mL gave an inhibition of 51%. With `Cn1ncc(NCc2ccc(C(=O)O)cc2)c(Cl)c1=O` [compound 27], the inhibition at 10 µg/mL stood at 20%. On the same count and under the same terms, in the case of `CCCCCOc1cc(CNc2cnn(CCC(=O)O)c(=O)c2Cl)ccc1OC` [compound 18] it was 18%; in that of `CCCCCOc1cc(CNc2cnn(CCO)c(=O)c2Cl)ccc1OC` [compound 14], 35%. Still for that read-out and setting: in the case of `CCCOc1cccc(CNc2cn[nH]c(=O)c2Br)c1` [compound 29] it was 61%. Same read-out and setting: in the case of `C=CCn1ncc(NCc2ccc(Cl)cc2)c(Cl)c1=O` [Compound No. 2] it was 93%. On to `CCN(CC)c1ccc(CNc2cnn(C)c(=O)c2Cl)cc1` [compound 26], for which the inhibition at 10 µg/mL stood at 46%. `CCCOc1cccc(CNc2cnn(C)c(=O)c2Cl)c1` [compound 5] gave an inhibition at 10 µg/mL of 71%.

`CCCCOC(=O)c1ccc(CNc2cnn(C)c(=O)c2Cl)cc1` [compound 24] yielded an inhibition at 10 µg/mL of 43%. The same measure, in the same setting: in the case of `COc1ccc(CNc2cn[nH]c(=O)c2Cl)cc1` [compound 28] it was 67%; in that of `COc1cc(CNc2cnn(CCCO)c(=O)c2Cl)cc(OC)c1OC` [compound 20], 19%; in that of `Cn1ncc(NCc2cccc(OCc3ccccc3)c2)c(Cl)c1=O` [compound 7], 53%. On the same count and under the same terms, next, `C=CCn1ncc(NCc2ccc(OC)c(OC)c2)c(Cl)c1=O` [compound 6]: 53%.

Still in this series, the particulars now being: Cavia porcellus, 5 min, 10^-6 g/ml test compound, Test method (i) (asterisk in Table 4), 5 min prior to LTD4.
`CCOc1cc(CNc2cn[nH]c(=O)c2Cl)ccc1OC` [compound 35] gave an inhibition at 1 µg/mL of 42%. On the same count and under the same terms, in the case of `CCCCCOc1cc(CNc2cn[nH]c(=O)c2Br)ccc1OC` [Compound No. 39, 4-Bromo-5-(3-n-pentyloxy-4-methoxybenzylamino)-3(2H)-pyridazinone] it was 87%. Still for that read-out and setting: in the case of `CCCCOc1cc(CNc2cn[nH]c(=O)c2Cl)ccc1OC` [compound 34] it was 49%; in that of `CCCCCOc1cc(CNc2cn[nH]c(=O)c2Cl)ccc1OC` [Compound No. 37], 87%.

For a further series, the system named is LTD4. The experiment in a line: LTD4 antagonism in isolated guinea-pig trachea with indomethacin (method (ii)). The format is cell-based. The settings on record: Cavia porcellus, 0.5 h, 10^-6 g/ml test compound, 30 min prior to LTD4. The protocol: (ii) LTD4 antagonism in guinea-pig trachea
Antagonism for LTD4 was determined in isolated guinea-pig trachea prepared as spiral strip. Tracheal preparations were suspended under 1 g tension in 10 ml organ baths containing […] of indomethacin and they were incubated for 1 hr prior to use. Contractile responses to LTD4 (2×10^-8 g/ml) were obtained after the maximal respone to hitamine (10^-4 M). Test compounds dissolved in 100% dimethyl sulfoxide were added to the organ baths (final concentration of 10^-6 g/ml) 30 min prior to LTD4 addition, and then contractile responses to LTD4 were compared with those of control which was obtained from a paired trachea in the absence of test compounds. LTD4 -induced contractions were expressed as a percentage of the maximal response to histamine. The antagonism was determined as follows:
as §1
The molecule `C=CCn1ncc(NCc2ccc(OC)c(OCCC)c2)c(Cl)c1=O` [compound 47] had an inhibition at 1 µg/mL of 31%. The same measure, in the same setting: next, `CCCCCCCOc1cc(CNc2cn[nH]c(=O)c2Cl)ccc1OC` [compound 42]: 96%; `CCOc1cc(CNc2cnn(C3CCCC3)c(=O)c2Cl)ccc1OC` [compound 46]: 38%.

Take `CCOc1cccc(CNc2cnn(Cc3ccccc3)c(=O)c2Cl)c1` [compound 50]: at 1 µg/mL the inhibition was 30%.

`CCCCCCOc1cc(CNc2cn[nH]c(=O)c2Br)ccc1OC` [Compound No. 41] came in with an inhibition at 1 µg/mL of 87%. The same measure, in the same setting: next, `COc1ccc(CNc2cn[nH]c(=O)c2Cl)cc1OCc1ccccc1` [compound 54]: 44%; `Cc1ccc(CNc2cn[nH]c(=O)c2Br)c(C)c1` [compound 53]: 37%; `CCOc1cc(CNc2cnn(-c3ccccc3)c(=O)c2Cl)ccc1OC` [compound 49]: 42%. The same measure, in the same setting: next, `CCCCCCOc1cc(CNc2cn[nH]c(=O)c2Cl)ccc1OC` [compound 40]: 99%; `CCCCCCCOc1cc(CNc2cn[nH]c(=O)c2Br)ccc1OC` [compound 43]: 78%. Molecule `COc1ccc(CNc2cnn(-c3ccccc3)c(=O)c2Cl)cc1` [compound 44] showed an inhibition at 1 µg/mL of 20%.

`COc1ccc(CNc2cnn(Cc3ccccc3)c(=O)c2Cl)cc1` [compound 45] had an inhibition at 1 µg/mL of 23%.

`C=CCn1ncc(NCc2ccc(OC)c(OCC)c2)c(Cl)c1=O` [compound 48] returned an inhibition at 1 µg/mL of 28%. On the same count and under the same terms, in the case of `Cc1ccc(CNc2cn[nH]c(=O)c2Cl)c(C)c1` [compound 52] it was 22%.

The test system of another series is antigen-induced anaphylactic bronchoconstriction in passively sensitized guinea-pig. Nature of the series: Anaphylactic bronchoconstriction in passively sensitized guinea-pig, i.v. test. The format is in vivo. Particulars: i.v. 2 mg/kg, 1 min prior to EA challenge (10 mg/kg). The protocol:
(iii) Effect on anaphylactic bronchoconstriction in passively sensitized guinea-pig
Male guinea-pigs (350-450 g) were passively sensitized with intravenous (i.v.) injection of 0.125 ml rabbit anti-EA (egg albumin) serum (Cappel Laboratories) 1 to 2 days preceding the experiment. […] Sensitized guinea-pigs were anaesthetized with intraperitoneal injection of urethane (1.5 g/kg). The right jugular vein was cannulated for the administration of the all agents and trachea was cannulated to record total pulmonary resistance. Guinea-pigs were artificially ventilated by a small animal respirator (Shinano, Model SN-480-7) set at a stroke volume of 4.5 ml and a rate of 50 breaths per min. […] The increase in air overflow volume was expresssed as a percentage of the maximum bronchoconstriction obtained by clamping off the trachea. Following surgical preparation, the animals were pretreated with indomethacin (0.2 mg/kg, 10 min), pyrilamine (2 mg/kg, 6 min) and propanolol (0.1 mg/kg, 5 min) prior to the EA challenge (0.1 or 10 mg/kg). All test compounds were administered intraveneously or orally before the EA challenge. Inhibition (%) of bronchoconstriction was determined as follows: Inhibition (%)=(1.0%-maximum bronchoconstriction in test/% maximum bronchoconstriction in control)×100. […] The number of test animals was 4 in the i.v. test and 6 in the p.o. test.
(a) The i.v. test: A test compound (2 mg/kg) was suspended or dissolved in 3% Tween 80 and intraveneously administered 1 min prior to the EA challlenge (10 mg/kg).
Regarding `CN(C)c1ccc(CNc2cn[nH]c(=O)c2Cl)cc1` [compound 25], the “Inhibition (%) of bronchoconstriction” value is 27%. On the same count and under the same terms, next, `CCCOc1cc(CNc2cnn(C)c(=O)c2Cl)ccc1OC` [Compound No. 12]: 31%.

The next series deals with ddY strain male mice. The experiment in a line: Acute toxicity test, intraperitoneal (Test method-(1)). The format is in vivo. The settings on record: i.p. 200 mg/kg, 7 days. The protocol:
The lethal ratio was determined in ddY strain male mice (4 weeks old) at 7 days after the intraperitoneal injection of test compounds.
Turning to `CCCOc1cc(CNc2cnn(C)c(=O)c2Cl)ccc1OC` [Compound No. 12], the “Lethal ratio (Death number/Experimental number)” value was 0/2.

Still in this series, the particulars now being: i.p. 400 mg/kg, 7 days.
For the molecule `CCCOc1cc(CNc2cnn(C)c(=O)c2Cl)ccc1OC` [Compound No. 12], the “Lethal ratio (Death number/Experimental number)” value was 0/1.

The values are drawn from patent publication US4892947A, “3(2H)Pyridazinone, process for its preparation and anti-allergic agent containing it” (Nissan Chemical Industries Ltd., priority 1985, dated 1990).
